Source: patent US12365675B2, “Stable heavy isotopes in amide functional groups and uses thereof” (RISEN (SUZHOU) PHARMA TECH CO., LTD., priority 2020, dated 2025)

Tests used:
[1] = Pharmacokinetic studies in beagle dogs, single oral dose; format: in vivo; settings: for CLz/F: single oral dose 2.5 mg/kg each, co-administered, plasma
Method: Male and female beagle dogs (n=4; 2 males and 2 females) were used in the study. A single oral dose of Alpelisib (2.5 mg/kg) and Compound 1 (^18O1-Alpelisib) (2.5 mg/kg) were co-administered (at a total dose of 5 mg/kg) in DMSO and 0.5% carboxymethyl cellulose sodium (CMC-Na) aqueous solution (5:95, v/v). Blood samples were collected for analysis of Alpelisib and ^18O1-Alpelisib at 0.25, 0.5, 1, 1.5, 2, 3, 4, 6, 8, 10, 12 and 24 h. In FIG. 4, lines labelled with -∘- and -Δ- represent the plasma concentrations of Alpelisib-^18O1 and Alpelisib, respectively, following oral administration of the same dose of Alpelisib-^18O1 and Alpelisib to the animals.

[2] = Pharmacokinetic studies in Sprague Dawley (SD) rats, oral gavage; format: in vivo; settings: both doses tested (2.5 and 0.322 mg/kg), greatest effect at low dose
Method: (a) SD rats, six in a group (n=6), were grouped randomly. Compound 1 (Alpelisib-^18O1) and Alpelisib were mixed and adjusted to 1:1 molar ratio in dosing solution (1.25 mg/mL); and the dosing solution was administered to the animals, via oral gavage, at a dose level of 2.5 mg/kg. Blood samples were collected at pre-set time points following drug administration, at 0.167, 0.5, 1, 2, 3, 4, 6, 8, and 24 hours (h). The blood samples were converted to plasma samples using standard techniques, and the latter samples were analyzed to determine the concentrations of Compound 1 and Alpelisib. In FIG. 1a, lines labelled with -∘- and --Δ-- represent the plasma concentrations of Alpelisib-^18O1 and Alpelisib, respectively, following oral administration of the same molar dose of Alpelisib-^18O1 and Alpelisib to the animals.
(b) Similarly, Compound 1 (Alpelisib-^18O1) and Alpelisib were administered to the animals (SD rats, n=4), via oral gavage, at a low dose (dose level of 0.322 mg/kg). Blood samples were collected at pre-set time points following drug administration, at 0.167, 0.5, 1, 2, 4, 6, 8, 10 and 24 hours (h). The blood samples were converted to plasma samples using standard techniques, and the latter samples were analyzed to determine the concentrations of Compound 1 and Alpelisib. […]

[3] = Pharmacokinetic studies in ICR mice, oral gavage; format: in vivo; settings: same dose
Method: ICR mice, 48, in 6 groups (n=8), were grouped randomly. Compound 1 (Alpelisib-^18O1) and Alpelisib were mixed and adjusted to 1:1 molar ratio in dosing solution (1.25 mg/mL); and the dosing solution was administered to the animals, via oral gavage, at a dose level of 2.5 mg/kg. Blood samples were collected (a group of 8 animals for each time point) at time points, after dosing, at 0.5, 1, 2, 4, 8, and 12 h. The blood samples were converted to plasma samples using standard techniques, and the latter samples were analyzed to determine the concentrations of Compound 1 and Alpelisib. In FIG. 2, lines labelled with -∘- and --Δ-- represent the plasma concentrations of Alpelisib-^18O1 and Alpelisib, respectively, following oral administration of the same dose of Alpelisib-^18O1 and Alpelisib to the animals.

[4] = M4 and M4-18O1 production in liver S9 culture media; format: in vitro ADME, monkey, human, mini pig, Wistar rat
Method: Stock solution (50 μL) containing equal molar concentration of Alpelisib and Alpelisib-^18O1 was diluted with pre-warmed (37° C., water bath) 0.1 M Tris-Acetate buffer; and the concentration of each compound in this working solution was 4.5 μM. In each incubation well were added the above working solution (50 μL) and a liver S9 solution (50 μL), mixed well. The sample was pre-incubated for 5 min, following by addition, to each well, of β-NADPH dosing solution (100 μL). The sample plate was incubated at 37° C., and analyzed at time points of 0, 15, 30, 60, and 240 min., in triplicates. Sample analysis: at a pre-set time-point, a stop solution (800 μL, acetonitrile) was added to each well; the sample was well-mixed (Vortex), and centrifuged at 12000 rpm for 5 minutes; the supernatant was transferred to analytical sample vial, and then analyzed with LC-MS/MS, for M4 and M4-^18O1. […] Liver S9 used in the experiment: (a) monkey liver S9, (b) pooled human S9, (c) mini pig liver S9, and (d) male Wistar rat Liver S9.

Row | SMILES | CLz/F [1] | plasma concentration compared with Alpelisib [2] | plasma concentration compared with Alpelisib [3] | plasma concentration compared with Alpelisib ([1]; oral, same dose) | concentration of the metabolite M4-18O1 compared to that of M4 from alpelisib ([4]; liver S9 (monkey, pooled human, mini pig, male Wistar rat), 37° C., β-NADPH, 0-240 min, equimolar co-incubation) | metabolism compared to that of Alpelisib ([4]; liver S9 incubation, taken together with PK results)
1 | Cc1nc(NC(=O)N2CCC[C@H]2C(N)=O)sc1-c1ccnc(C(C)(C)C(F)(F)F)c1 [Alpelisib, N-(4-methyl-5-(2-(2,2,2-trifluoro-1,1-dimethylethyl)-4-pyridinyl)-2-thiazolyl)aminocarbonyl-L-prolinamide, reference compound] | 6.83 mL/min/kg | – | – | – | – | –
2 | Cc1nc(NC(=O)N2CCC[C@H]2C(N)=[18O])sc1-c1ccnc(C(C)(C)C(F)(F)F)c1 [Compound 1, N-(4-methyl-5-(2-(2,2,2-trifluoro-1,1-dimethylethyl)-4 pyridinyl)-2-thiazolyl)aminocarbonyl-L-prolin-^18O-amide] | 6.33 mL/min/kg | higher than for Alpelisib | higher than for Alpelisib | higher than for Alpelisib | decreased | reduced
